# Laboratory results reported in patent publication US20260167614A1, “IDENTIFICATION OF SMALL MOLECULES THAT RECRUIT AND ACTIVATE RNASE L” (UNIVERSITY OF FLORIDA RESEARCH FOUNDATION, INCORPORATED, priority 2022, published 2026).
# Changes are numbered by the printed parent chain.
# What was measured:
# RNase L [1] = molecular target: T1, RNase L (Homo sapiens, UniProt Q05823); assay: RNase L dimerization in vitro by Western blotting; format: biochemical
# T1 construct: made in house; host or cells: Rosetta DE3 E. coli
# T1 sequence (Q05823 1-741): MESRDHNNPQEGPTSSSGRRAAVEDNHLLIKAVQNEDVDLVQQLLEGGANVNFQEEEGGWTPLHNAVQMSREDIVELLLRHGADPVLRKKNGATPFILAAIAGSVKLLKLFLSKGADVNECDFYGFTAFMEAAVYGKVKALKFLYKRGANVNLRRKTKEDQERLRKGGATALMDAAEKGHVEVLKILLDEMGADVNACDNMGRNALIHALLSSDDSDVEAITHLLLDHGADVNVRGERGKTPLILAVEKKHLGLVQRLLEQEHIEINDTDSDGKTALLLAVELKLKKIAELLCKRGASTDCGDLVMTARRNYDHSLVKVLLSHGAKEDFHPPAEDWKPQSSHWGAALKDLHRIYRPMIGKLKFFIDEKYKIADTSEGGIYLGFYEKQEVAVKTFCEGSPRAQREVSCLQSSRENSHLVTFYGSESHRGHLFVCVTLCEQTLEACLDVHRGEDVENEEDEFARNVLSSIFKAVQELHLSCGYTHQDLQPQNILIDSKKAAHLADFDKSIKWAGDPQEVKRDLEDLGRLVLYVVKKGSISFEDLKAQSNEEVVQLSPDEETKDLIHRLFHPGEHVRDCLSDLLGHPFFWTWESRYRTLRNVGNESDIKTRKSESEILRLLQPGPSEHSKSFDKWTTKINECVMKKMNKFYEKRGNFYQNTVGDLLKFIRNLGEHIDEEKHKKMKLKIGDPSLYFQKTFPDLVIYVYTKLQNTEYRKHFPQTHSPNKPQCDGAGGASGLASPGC
# Experimental: The position within 2 suitable for conjugation was then determined. […] Therefore, this position was derivatized and assessed for RNase L activation. […] A polyethylene glycol (PEG) linker terminated with a t-butyl ester was attached to yield 5 (FIG. 2C).
# RNase L [2] = molecular target: T1, RNase L; assay: FRET-based in vitro RNA cleavage assay (RNase L activation); format: biochemical; conditions: for Relative RNA Cleavage (cleavage of fluorescently labeled RNA, RNase L activation): dose response, fluorescence normalized to 50 μM of 6
# Text: The four compounds with the highest confidence (enrichment scores>300 and copy number>25) were selected for further study. The compounds were re-synthesized without the encoding DNA tag and were studied for RNase L activation using a fluorescence-based in vitro assay, completed as previously described.^16 In brief, the assay uses an dually labeled RNA [5′ fluorescein (6-FAM) and 3′ black hole quencher (BHQ)] that harbors multiple preferred substates for RNase L (FIG. 2A).^16 In the presence of a binder that activates RNase L, the enzyme cleaves the RNA, resulting in an increased fluorescence signal. […] 2 and 3 are similar in structure, differing only by the first building block, phenylglycine in 2 and indoline in 3 (FIG. 2C).
# FRET-Based In Vitro RNA Cleavage Assay. Samples were prepared as previously described.^3 Briefly, an RNA construct with multiple preferred RNase L cleavage sites^7 (5′ 6-FAM-[…]-3′ BHQ; 100 nM final concentration) was folded in 1× RNase L Assay Buffer (25 mM Tris-HCl, pH 7.4, and 100 mM NaCl) for 1 min at 95° C. followed by snap cooling on ice for 10 min. Following cooling, β-mercaptoethanol (7 mM), ATP (50 μM), and MgCl2 (1 mM) were added. Compound or DMSO (1%; vehicle) was added to the folded RNA, and the samples were incubated for 15 min. Recombinant GST-RNase L-His was then added to the solution (50 nM final concentration), affording a total volume of 33 μL. Technical triplicates (10 μL) were dispensed into 384-well low volume non-binding plate (Corning 4515), and the samples were incubated in the dark for 1 h. Fluorescence was measured using a Tecan infinite M1000 Pro plate reader using an excitation wavelength of 485 nm, emission wavelength of 520 nm, and gain of 100. Data are reported as “Relative RNA Cleavage”, normalizing fluorescence to the highest level of cleavage observed—upon addition of 50 μM of 6, which was set to 1.
# pre-miR-21 and RNase L = molecular target: T2, pre-miR-21 and RNase L (Homo sapiens, UniProt Q05823, H672N); assay: Co-immunoprecipitation of pre-miR-21 and RNase L; format: binding; conditions: WT 32P-pre-miR-21, inactive RNase L
# T2 construct: GST (N, cleaved yes); made in house; host or cells: BL21 AI Escherichia coli
# T2 sequence (Q05823 1-741 H672N): T1 sequence (Q05823 1-741) with H672N
# Experimental: (§1) Co-Immunoprecipitation of pre-miR-2I and RNase L. Approximately 20,000 cpm of 32P 5′-end labeled WT or mutant pre-miR-21 or an RNA construct where the A-bulge was mutated to a base pair (5′-[…] UGGGCUGU-3′) was folded in 1× RNase L Assay Buffer for 1 min at 95° C. and cooled on ice for 10 min. Following cooling, β-mercaptoethanol (7 mM), ATP (50 μM), and MgCl2 (1 mM) were added to the solution. The solution was aliquoted, and compounds were incubated in solution for 15 min (1% DMSO final concentration). […] Beads were then washed with 1×PBS supplemented with 0.02% (v/v) Tween-20. Radioactive signal in the supernatant and associated with the beads was quantified by a Beckman Coulter LS6500 Liquid Scintillation Counter. Relative RNA enrichment was calculated by comparing the radioactive signal associated with beads compared to the total radioactive signal from the beads plus the supernatant.
# RNase L [3] = molecular target: T3, RNase L (Homo sapiens, UniProt Q05823, H672N); assay: Saturation transfer difference (STD) NMR; format: binding; conditions: 3 μM protein, 300 μM compound
# T3 construct: GST (N, cleaved yes); made in house; host or cells: BL21 AI Escherichia coli
# T3 sequence (Q05823 1-741 H672N): T1 sequence (Q05823 1-741) with H672N
# Experimental: (§2) To assess further the ability of this compound to bind to RNase L, saturation transfer difference (STD) nuclear magnetic resonance (NMR)^20 and circular dichroism (CD) spectroscopic studies were conducted with 6, a compound similar in structure to 5 and a potential intermediate in the synthesis of a resulting RiboTAC (FIGS. 2C & 6B-6C).
# (§3) Saturation Transfer Difference (STD) NMR. NMR spectra were acquired at 25° C. on a 600 MHz Bruker Avance III spectrometer equipped with a cryoprobe. Samples were prepared by drying 6 (120 nmol) to a solid and resuspending in deuterated DMSO (4 μL). […] The STD spectra were recorded as an interleaved experiment (n=2) with one experiment including a saturating pulse at −40 ppm for 2 s and one at 0.8 ppm for 2 s. Both spectra were processed with identical phasing before calculating the difference spectra (A) using TopSpin 4.0.6 (Bruker).
# lysozyme = assay: Saturation transfer difference (STD) NMR, control protein; format: binding; conditions: 3 μM protein, 300 μM compound
# Experimental: as §2, §3
# [4] = molecular target: T4, pre-miR-21 mutant and RNase L (Homo sapiens, UniProt Q05823, H672N); assay: Co-immunoprecipitation of mutant pre-miR-21 and RNase L; format: binding; conditions: base paired mutant pre-miR-21, inactive RNase L
# T4 construct: GST (N, cleaved yes); made in house; host or cells: BL21 AI Escherichia coli
# T4 sequence (Q05823 1-741 H672N): T1 sequence (Q05823 1-741) with H672N
# Experimental: as §1
# RNase L [5] = molecular target: T3, RNase L; assay: Circular dichroism (CD) spectroscopy; format: binding; conditions: 10 μM inactive RNase L, 75 μM compound
# Experimental: as §2
# Circular Dichroism (CD) Spectroscopy. […] CD wavelength scans were completed from 190 to 260 nm. […] The spectra were plotted and compared in GraphPad Prism.
# [6] = test system: phosphorylation of extracellular signal-regulated kinase (ERK); assay: Western blot of pERK versus ERK (RTK signaling); format: cell-based; conditions: Homo sapiens; CRISPR-Control sgRNA MDA-MB-231 cells; read-out: IC50 for inhibition of phosphorylation of ERK
# Experimental: Quantification of Protein Levels by Western Blotting. MDA-MB-231 cells were treated as described in “Cell Culture.” After treatment, the medium was removed, and the cells were washed with 1× Dulbecco's phosphate-buffered saline (DPBS). Total protein was extracted using Mammalian Protein Extraction Reagent (M-PER, Thermo Scientific) according to the manufacturer's protocol. Protein concentration was measured using a Pierce Micro BCA Protein Assay kit (Fisher Scientific). Approximately 20 μg total protein was loaded onto a Tris-glycine gel with a 5% polyacrylamide stacking layer and a 10% polyacrylamide resolving layer. The gel was run at 140 V for ˜1.5 h in 1× Running Buffer (25 mM Tris base, pH 8.3, 190 mM glycine, and 0.1% (w/v) SDS). After electrophoresis, the protein was transferred to a PVDF membrane using 1× Transfer Buffer (25 mM Tris base, pH 8.3, 190 mM glycine, and 20% (v/v) methanol). The membrane was then washed with 1×TBST (Tris-buffered saline with 0.1% (v/v) Tween 20) and blocked in a solution of 5% (w/v) milk in 1×TBST for 30 min with shaking at room temperature. The membrane was then incubated overnight at 4° C. in a solution of primary antibody diluted in 1×TBST containing 5% (w/v) milk. […]
compound,measurement,setting,value
"CCCCCCCCc1ccsc1-c1cccc(-c2ccc(CN(C)[C@H](C(=O)NC)c3ccccc3)cc2)c1 [Compound 2, (S)—N-methyl-2-(methyl((3′-(3-octylthiophen-2-yl)-[1,1′-biphenyl]-4-yl)methyl)amino)-2-phenylacetamide]",RNase L dimerization,RNase L [1],induces RNase L dimerization
same,"Relative RNA Cleavage (cleavage of fluorescently labeled RNA, RNase L activation)",RNase L [2],induced dose-dependent RNA cleavage to a greater extent than 1
"CNC(=O)[C@H](c1ccccc1)N(C)Cc1ccc(-c2cccc(-c3sccc3N)c2)cc1 [Compound 4, (S)-2-(((3′-(3-aminothiophen-2-yl)-[1,1′-biphenyl]-4-yl)methyl)-(methyl)amino)-N-methyl-2-phenylacetamide]","Relative RNA Cleavage (cleavage of fluorescently labeled RNA, RNase L activation)",RNase L [2],enhanced RNA cleavage compared to 2
"CNC(=O)[C@H](c1ccccc1)N(C)Cc1ccc(-c2cccc(-c3sccc3NC(=O)CCOCCOCCOCCC(=O)OC(C)(C)C)c2)cc1 [Compound 5, tert-butyl (S)-3-(2-(2-(3-((2-(4′-((methyl(2-(methylamino)-2-oxo-1-phenylethyl)-amino)methyl)-[1,1′-biphenyl]-3-yl)thiophen-3-yl)amino)-3-oxopropoxy)ethoxy)-ethoxy) propanoate]","Relative RNA Cleavage (cleavage of fluorescently labeled RNA, RNase L activation)",RNase L [2],retained RNase L activation activity
"CNC(=O)[C@H](c1ccccc1)N(C)Cc1ccc(-c2cccc(-c3sccc3NC(=O)CCOCCOCCOCCC(=O)O)c2)cc1 [Compound 6, (S)-3-(2-(2-(3-((2-(4′-((methyl(2-(methylamino)-2-oxo-1-phenylethyl)amino)methyl)-[1,1′-biphenyl]-3-yl)thiophen-3-yl)amino)-3-oxopropoxy)ethoxy)ethoxy)propanoic acid]",co-immunoprecipitation of RNA with RNase L,pre-miR-21 and RNase L,Neither RNA was pulled down
same,STD-NMR transfer of magnetization,RNase L [3],transfer of magnetization from the compound to RNase L
same,Relative RNA Cleavage,"RNase L [2]; 50 μM, highest level of cleavage observed, set to 1",1
same,STD-NMR transfer of magnetization,lysozyme,no transfer was observed
same,co-immunoprecipitation of RNA with RNase L,[4],Neither RNA was pulled down
same,CD signal of RNase L upon addition of compound,RNase L [5],increase in signal intensity at 220 nm
"CN1CCN(c2ccc3nc(-c4c(N)c5c(F)cccc5[nH]c4=O)[nH]c3c2)CC1 [Dovitinib, reference compound]",IC50,[6],~1 µM
